Here are results for 3 compounds from patent US20070244115A1, “Amino-Halogen-Imidazopyridines as Proton Pump Inhibitors” (Alana Pharma AG, priority 2004, published 2007).

The subject of the assay is pentagastrin-stimulated acid secretion of the perfused rat stomach. The assay can be described thus: Secretion-inhibiting action on the perfused rat stomach (pentagastrin-stimulated acid secretion). It counts as in vivo. The following applies: anesthetized CD rat, dose 2.2 μmol/kg i.d. (intraduodenal). An excerpt: Testing of the Secretion-Inhibiting Action on the Perfused Rat Stomach
In Table A which follows, the influence of the compounds according to the invention on the pentagastrin-stimulated acid secretion of the perfused rat stomach after intraduodenal administration in vivo is shown.
The abdomen of anesthetized rats (CD rat, female, 200-250 g; 1.5 g/kg i.m. urethane) was opened after tracheotomy by a median upper abdominal incision and a PVC catheter was fixed transorally in the esophagus and another via the pylorus such that the ends of the tubes just projected into the gastric lumen. The catheter leading from the pylorus led outward into the right abdominal wall through a side opening.
After thorough rinsing (about 50-100 ml), warm (37° C.) physiological NaCl solution was continuously passed through the stomach (0.5 ml/min, pH 6.8-6.9; Braun-Unita I). The pH (pH meter 632, glass electrode EA 147; φ=5 mm, Metrohm) and, by titration with a freshly prepared 0.01N NaOH solution to pH 7 (Dosimat 665 Metrohm), the secreted HCl were determined in the effluent in each case collected at an interval of 15 minutes.
The gastric secretion was stimulated by continuous infusion of 1 μg/kg (=1.65 ml/h) of i.v. pentagastrin (left femoral vein) about 30 min after the end of the operation (i.e. after determination of 2 preliminary fractions). The substances to be tested were administered intraduodenally in a 2.5 ml/kg liquid volume 60 min after the start of the continuous pentagastrin infusion.
The body temperature of the animals was kept at a constant 37.8-38° C. by infrared irradiation and heat pads (automatic, stepless control by means of a rectal temperature sensor).
Regarding `COc1ccc2nc([S+]([O-])Cc3nccc(N4CCOCC4)c3Cl)[nH]c2n1` (stereo not drawn) [Example 1, 2-(3Chloro-4-morpholin-4-yl-pyridin-2-ylmethanesulfinyl)-5-methoxy-3H-imidazo[4,5-b]pyridine], the “Inhibition of acid secretion (%)” value was >50%.

On to `COc1ccc2nc([S@@+]([O-])Cc3nccc(N4CCOCC4)c3Cl)[nH]c2n1` [Example 2, (S)-2-(3-Chloro-4-morpholin-4-yl-pyridin-2-ylmethanesulfinyl)-5-methoxy-3H-imidazo[4,5-b]pyridine], for which the “Inhibition of acid secretion (%)” value was >50%. As for `COc1ccc2nc([S@+]([O-])Cc3nccc(N4CCOCC4)c3Cl)[nH]c2n1` [Example 3, (R)-2-(3-Chloro-4-morpholin-4-yl-pyridin-2-ylmethanesulfinyl)-5-methoxy-3H-imidazo[4,5-]pyridine], the figure is >50%.
